Earlier results, collected in US11304902B2, “Pharmaceutical compositions, preparation and uses thereof” (CURADIGM SAS, priority 2014, dated 2022).
Entries after “also recorded” stand apart in the source; their conditions may differ. Like-named read-outs stand apart in the source and are kept apart here.

Assays:
Settings in all cases: human CYP enzyme
CYP2B6 = biological target: T1, CYP2B6 (Homo sapiens, UniProt P20813)
T1 sequence (P20813 1-491): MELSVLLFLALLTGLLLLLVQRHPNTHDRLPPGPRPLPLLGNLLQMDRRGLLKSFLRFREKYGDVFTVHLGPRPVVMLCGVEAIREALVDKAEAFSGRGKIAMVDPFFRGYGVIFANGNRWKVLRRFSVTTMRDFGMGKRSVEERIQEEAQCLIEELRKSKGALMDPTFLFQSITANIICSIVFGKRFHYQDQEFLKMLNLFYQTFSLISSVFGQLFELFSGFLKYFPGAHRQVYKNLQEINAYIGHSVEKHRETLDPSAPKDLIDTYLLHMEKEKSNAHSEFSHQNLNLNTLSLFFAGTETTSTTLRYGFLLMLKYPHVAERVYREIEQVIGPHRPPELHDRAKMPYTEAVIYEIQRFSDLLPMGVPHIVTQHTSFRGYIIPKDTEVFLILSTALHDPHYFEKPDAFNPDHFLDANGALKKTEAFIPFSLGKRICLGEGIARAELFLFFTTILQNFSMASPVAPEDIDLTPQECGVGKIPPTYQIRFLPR

CYP2C8 = biological target: T2, CYP2C8 (Homo sapiens, UniProt P10632)
T2 sequence (P10632 1-490): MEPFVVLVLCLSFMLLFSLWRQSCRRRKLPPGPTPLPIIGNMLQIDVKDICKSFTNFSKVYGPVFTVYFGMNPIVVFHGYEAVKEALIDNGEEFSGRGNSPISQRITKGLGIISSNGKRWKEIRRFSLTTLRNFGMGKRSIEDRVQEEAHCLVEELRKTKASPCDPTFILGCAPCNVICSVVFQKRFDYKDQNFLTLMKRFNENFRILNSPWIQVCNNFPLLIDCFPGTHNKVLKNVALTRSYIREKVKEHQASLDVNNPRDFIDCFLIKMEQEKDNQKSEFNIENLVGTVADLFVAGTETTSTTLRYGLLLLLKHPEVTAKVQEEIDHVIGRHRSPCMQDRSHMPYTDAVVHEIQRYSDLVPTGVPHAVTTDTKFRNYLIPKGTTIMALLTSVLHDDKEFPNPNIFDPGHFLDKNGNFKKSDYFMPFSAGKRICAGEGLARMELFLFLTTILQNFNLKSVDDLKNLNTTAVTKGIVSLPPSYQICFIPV

CYP2D6 = CYP2D6 (Homo sapiens, UniProt P10635)
Sequence of CYP2D6 (P10635 whole entry): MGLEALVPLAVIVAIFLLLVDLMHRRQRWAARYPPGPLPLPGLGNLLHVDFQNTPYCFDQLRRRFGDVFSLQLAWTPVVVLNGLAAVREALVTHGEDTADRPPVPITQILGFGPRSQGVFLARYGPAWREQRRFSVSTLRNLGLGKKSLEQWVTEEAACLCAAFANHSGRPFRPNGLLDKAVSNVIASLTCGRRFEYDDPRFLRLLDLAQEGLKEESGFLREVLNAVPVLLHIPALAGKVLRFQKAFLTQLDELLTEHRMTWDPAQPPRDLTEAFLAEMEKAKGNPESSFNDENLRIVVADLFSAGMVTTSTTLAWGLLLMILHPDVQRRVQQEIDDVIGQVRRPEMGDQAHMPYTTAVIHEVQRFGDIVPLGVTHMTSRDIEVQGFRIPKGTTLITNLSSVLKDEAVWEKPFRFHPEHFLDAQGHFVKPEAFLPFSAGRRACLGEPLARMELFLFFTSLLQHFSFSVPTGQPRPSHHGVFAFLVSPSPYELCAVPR

CYP1A1 = biological target: T3, CYP1A1 (Homo sapiens, UniProt P04798)
T3 sequence (P04798 1-512): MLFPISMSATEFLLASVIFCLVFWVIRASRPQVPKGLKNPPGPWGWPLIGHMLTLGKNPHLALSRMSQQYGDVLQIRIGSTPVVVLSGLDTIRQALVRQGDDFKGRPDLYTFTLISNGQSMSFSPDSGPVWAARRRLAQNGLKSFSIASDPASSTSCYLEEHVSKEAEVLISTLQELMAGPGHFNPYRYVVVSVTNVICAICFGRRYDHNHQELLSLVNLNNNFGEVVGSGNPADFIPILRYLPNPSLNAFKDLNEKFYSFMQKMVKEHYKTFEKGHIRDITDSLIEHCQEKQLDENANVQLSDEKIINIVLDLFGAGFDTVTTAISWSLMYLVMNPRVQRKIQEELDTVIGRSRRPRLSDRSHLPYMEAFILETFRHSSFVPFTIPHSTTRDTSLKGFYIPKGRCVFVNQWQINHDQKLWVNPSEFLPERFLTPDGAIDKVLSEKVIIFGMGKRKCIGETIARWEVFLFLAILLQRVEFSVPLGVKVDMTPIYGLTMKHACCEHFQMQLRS

CYP11B1 = biological target: T4, CYP11B1 (Homo sapiens, UniProt P15538)
T4 sequence (P15538 25-503): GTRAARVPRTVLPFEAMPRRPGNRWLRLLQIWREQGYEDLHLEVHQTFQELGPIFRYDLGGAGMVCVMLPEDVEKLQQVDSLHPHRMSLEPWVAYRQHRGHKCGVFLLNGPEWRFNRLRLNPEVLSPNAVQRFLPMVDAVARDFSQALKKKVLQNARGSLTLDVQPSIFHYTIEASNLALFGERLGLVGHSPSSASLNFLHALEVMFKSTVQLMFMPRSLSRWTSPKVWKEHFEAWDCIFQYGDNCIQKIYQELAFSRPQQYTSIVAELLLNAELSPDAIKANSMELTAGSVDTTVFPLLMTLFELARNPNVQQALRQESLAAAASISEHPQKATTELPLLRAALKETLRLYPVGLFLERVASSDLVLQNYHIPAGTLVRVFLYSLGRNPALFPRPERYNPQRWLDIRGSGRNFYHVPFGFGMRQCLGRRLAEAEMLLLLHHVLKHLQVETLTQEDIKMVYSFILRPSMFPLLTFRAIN

CYP3A4 = CYP3A4 (Homo sapiens, UniProt P08684)
Sequence of CYP3A4 (P08684 whole entry): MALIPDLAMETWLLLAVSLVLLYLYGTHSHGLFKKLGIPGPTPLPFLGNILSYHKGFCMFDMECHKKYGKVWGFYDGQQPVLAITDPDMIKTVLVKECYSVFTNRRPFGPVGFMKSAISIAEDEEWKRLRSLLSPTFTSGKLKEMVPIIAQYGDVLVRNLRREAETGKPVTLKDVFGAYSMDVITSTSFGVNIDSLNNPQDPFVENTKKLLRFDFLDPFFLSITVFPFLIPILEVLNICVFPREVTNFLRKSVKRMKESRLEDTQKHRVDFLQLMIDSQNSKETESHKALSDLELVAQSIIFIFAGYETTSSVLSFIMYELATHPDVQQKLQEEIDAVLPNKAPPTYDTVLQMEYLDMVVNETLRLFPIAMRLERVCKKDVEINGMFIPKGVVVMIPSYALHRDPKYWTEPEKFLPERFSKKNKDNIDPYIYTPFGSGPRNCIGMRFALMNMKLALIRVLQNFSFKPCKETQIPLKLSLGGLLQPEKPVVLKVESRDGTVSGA

CYP19 = biological target: T5, CYP19 (Homo sapiens, UniProt P11511)
T5 sequence (P11511 1-503): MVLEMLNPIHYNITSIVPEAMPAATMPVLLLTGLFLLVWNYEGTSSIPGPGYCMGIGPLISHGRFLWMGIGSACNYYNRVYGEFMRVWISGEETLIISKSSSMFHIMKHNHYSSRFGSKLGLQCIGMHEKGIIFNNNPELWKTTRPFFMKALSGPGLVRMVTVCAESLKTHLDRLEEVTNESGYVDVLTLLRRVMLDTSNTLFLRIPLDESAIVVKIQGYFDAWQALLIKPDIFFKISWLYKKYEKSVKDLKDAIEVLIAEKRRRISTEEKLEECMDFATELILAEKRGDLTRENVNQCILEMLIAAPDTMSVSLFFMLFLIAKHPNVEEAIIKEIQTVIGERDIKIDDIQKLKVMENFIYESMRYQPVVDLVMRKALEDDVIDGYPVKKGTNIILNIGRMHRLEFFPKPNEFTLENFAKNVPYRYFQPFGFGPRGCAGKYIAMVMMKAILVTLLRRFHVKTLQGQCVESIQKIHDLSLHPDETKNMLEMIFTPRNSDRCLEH

CYP1A2 = biological target: T6, CYP1A2 (Homo sapiens, UniProt P05177)
T6 sequence (P05177 1-516): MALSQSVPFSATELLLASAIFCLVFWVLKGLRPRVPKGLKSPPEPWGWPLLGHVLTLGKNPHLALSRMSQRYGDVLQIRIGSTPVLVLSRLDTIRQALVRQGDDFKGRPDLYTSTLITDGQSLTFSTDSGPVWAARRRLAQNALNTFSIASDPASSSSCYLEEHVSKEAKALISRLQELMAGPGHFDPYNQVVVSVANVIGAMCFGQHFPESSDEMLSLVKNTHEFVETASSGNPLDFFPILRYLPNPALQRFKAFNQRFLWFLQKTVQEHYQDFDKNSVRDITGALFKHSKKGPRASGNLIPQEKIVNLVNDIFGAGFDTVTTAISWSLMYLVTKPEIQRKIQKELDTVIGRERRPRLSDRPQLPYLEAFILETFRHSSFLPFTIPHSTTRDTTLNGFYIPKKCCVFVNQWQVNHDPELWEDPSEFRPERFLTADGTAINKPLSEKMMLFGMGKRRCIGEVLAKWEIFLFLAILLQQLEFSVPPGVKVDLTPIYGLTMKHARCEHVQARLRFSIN

CYP1B1 = biological target: T7, CYP1B1 (Homo sapiens, UniProt Q16678)
T7 sequence (Q16678 1-543): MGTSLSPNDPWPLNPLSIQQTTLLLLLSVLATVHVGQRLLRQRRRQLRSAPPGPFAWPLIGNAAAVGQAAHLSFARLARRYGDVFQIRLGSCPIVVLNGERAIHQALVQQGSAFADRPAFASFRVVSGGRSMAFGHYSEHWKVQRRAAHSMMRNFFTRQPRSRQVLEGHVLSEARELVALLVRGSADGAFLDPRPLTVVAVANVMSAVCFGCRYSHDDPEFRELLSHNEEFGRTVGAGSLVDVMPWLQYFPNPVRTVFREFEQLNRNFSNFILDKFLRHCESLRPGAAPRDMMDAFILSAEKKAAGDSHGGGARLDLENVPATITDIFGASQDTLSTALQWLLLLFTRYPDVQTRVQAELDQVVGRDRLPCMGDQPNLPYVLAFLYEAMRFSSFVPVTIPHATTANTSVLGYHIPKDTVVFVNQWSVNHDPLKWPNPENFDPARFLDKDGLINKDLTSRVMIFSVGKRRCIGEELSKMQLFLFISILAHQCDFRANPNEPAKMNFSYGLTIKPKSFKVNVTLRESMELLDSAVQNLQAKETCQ

CYP2C9 = CYP2C9 (Homo sapiens, UniProt P11712)
Sequence of CYP2C9 (P11712 whole entry): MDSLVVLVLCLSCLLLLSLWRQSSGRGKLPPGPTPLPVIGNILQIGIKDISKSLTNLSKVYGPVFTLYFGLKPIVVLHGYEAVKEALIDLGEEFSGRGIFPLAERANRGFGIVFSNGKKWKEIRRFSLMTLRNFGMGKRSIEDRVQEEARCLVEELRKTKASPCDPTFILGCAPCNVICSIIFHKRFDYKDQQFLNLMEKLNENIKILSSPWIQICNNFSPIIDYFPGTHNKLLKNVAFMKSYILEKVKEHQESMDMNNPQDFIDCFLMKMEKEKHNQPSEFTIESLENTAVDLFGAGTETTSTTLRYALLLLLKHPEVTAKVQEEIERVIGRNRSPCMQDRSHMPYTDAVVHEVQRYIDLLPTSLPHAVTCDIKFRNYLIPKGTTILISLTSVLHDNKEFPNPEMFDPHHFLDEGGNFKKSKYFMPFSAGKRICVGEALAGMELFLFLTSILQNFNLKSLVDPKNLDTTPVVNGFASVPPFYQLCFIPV

CYP2C19 = CYP2C19 (Homo sapiens, UniProt P33261)
Sequence of CYP2C19 (P33261 whole entry): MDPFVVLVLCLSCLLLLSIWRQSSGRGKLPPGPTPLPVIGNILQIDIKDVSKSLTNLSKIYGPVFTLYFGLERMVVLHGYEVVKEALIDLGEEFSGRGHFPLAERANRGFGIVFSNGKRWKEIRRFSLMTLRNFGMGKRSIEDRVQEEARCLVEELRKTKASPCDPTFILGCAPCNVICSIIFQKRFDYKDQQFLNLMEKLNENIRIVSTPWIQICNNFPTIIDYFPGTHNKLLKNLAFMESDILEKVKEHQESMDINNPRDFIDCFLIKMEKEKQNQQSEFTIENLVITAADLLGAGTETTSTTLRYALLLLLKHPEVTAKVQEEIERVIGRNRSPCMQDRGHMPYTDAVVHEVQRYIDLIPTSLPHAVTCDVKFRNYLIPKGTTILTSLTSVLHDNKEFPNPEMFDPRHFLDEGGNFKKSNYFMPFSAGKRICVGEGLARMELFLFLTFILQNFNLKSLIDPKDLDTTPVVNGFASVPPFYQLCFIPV

CYP2C18 = biological target: T8, CYP2C18 (Homo sapiens, UniProt P33260)
T8 sequence (P33260 26-490): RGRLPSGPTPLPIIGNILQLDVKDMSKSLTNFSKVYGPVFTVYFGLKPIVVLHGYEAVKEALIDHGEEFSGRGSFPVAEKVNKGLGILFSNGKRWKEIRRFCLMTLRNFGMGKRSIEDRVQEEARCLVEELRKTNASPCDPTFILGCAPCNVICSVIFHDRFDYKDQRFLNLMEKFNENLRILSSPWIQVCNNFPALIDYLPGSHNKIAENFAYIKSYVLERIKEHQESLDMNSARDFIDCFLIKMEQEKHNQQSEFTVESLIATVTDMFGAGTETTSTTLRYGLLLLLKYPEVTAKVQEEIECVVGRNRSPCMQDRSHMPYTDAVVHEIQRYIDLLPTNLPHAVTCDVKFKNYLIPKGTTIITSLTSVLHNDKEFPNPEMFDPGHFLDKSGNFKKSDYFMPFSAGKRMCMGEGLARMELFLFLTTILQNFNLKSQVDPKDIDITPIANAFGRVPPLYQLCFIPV

CC1=C(/C=C/C(C)=C/C=C/C(C)=C/CO)C(C)(C)CCC1 [Vitamin A retinol, retinol]
role towards CYP2B6 (substrate / inhibitor / inducer) (CYP2B6): Inhibitor
role towards CYP2C8 (substrate / inhibitor / inducer) (CYP2C8): Inhibitor; also recorded: Substrate
role towards CYP2D6 (substrate / inhibitor / inducer) (CYP2D6): Substrate
role towards CYP1A1 (substrate / inhibitor / inducer) (CYP1A1): Inhibitor

O=c1c(O)c(-c2ccc(O)c(O)c2)oc2cc(O)cc(O)c12 [Quercetin, quercetin]
role towards CYP11B1 (substrate / inhibitor / inducer) (CYP11B1): Inhibitor
role towards CYP2C8 (substrate / inhibitor / inducer) (CYP2C8): Inhibitor
role towards CYP3A4 (substrate / inhibitor / inducer) (CYP3A4): Inhibitor
role towards CYP19 (substrate / inhibitor / inducer) (CYP19): Inhibitor
role towards CYP1A1 (substrate / inhibitor / inducer) (CYP1A1): Inhibitor
role towards CYP1A2 (substrate / inhibitor / inducer) (CYP1A2): Inhibitor

CC(=O)O[C@@]12CO[C@@H]1C[C@H](O)[C@@]1(C)C(=O)[C@H](O)C3=C(C)[C@@H](OC(=O)[C@H](O)[C@@H](NC(=O)OC(C)(C)C)c4ccccc4)C[C@@](O)([C@@H](OC(=O)c4ccccc4)[C@H]21)C3(C)C [Docetaxel, docetaxel]
role towards CYP1B1 (substrate / inhibitor / inducer) (CYP1B1): Substrate; also recorded: inhibitor
role towards CYP3A4 (substrate / inhibitor / inducer) (CYP3A4): Substrate
role towards CYP3A4 (substrate / inhibitor / inducer) (CYP3A4; listed as docetaxel): substrate

O=C1Nc2ccc(Cl)cc2[C@@](C#CC2CC2)(C(F)(F)F)O1 [Efavirenz, efavirenz]
role towards CYP2B6 (substrate / inhibitor / inducer) (CYP2B6): Substrate; also recorded: inhibitor
role towards CYP2C9 (substrate / inhibitor / inducer) (CYP2C9): inhibitor
role towards CYP2D6 (substrate / inhibitor / inducer) (CYP2D6): inhibitor
role towards CYP2C19 (substrate / inhibitor / inducer) (CYP2C19): inhibitor

COc1cccc2c1C(=O)c1c(O)c3c(c(O)c1C2=O)C[C@@](O)(C(=O)CO)C[C@@H]3O[C@H]1C[C@H](N)[C@H](O)[C@H](C)O1 [Doxorubicin, doxorubicin]
role towards CYP2D6 (substrate / inhibitor / inducer) (CYP2D6): inhibitor
role towards CYP3A4 (substrate / inhibitor / inducer) (CYP3A4): Substrate; also recorded: inhibitor

CO[C@H]1/C=C/O[C@@]2(C)Oc3c(C)c(O)c4c(O)c(c(/C=N/N5CCN(C)CC5)c(O)c4c3C2=O)NC(=O)/C(C)=C\C=C\[C@H](C)[C@H](O)[C@@H](C)[C@@H](O)[C@@H](C)[C@H](OC(C)=O)[C@@H]1C [Rifampin, rifampin]
role towards CYP2B6 (substrate / inhibitor / inducer) (CYP2B6): inducer
role towards CYP2C18 (substrate / inhibitor / inducer) (CYP2C18): inducer

CC(=O)CC(c1ccccc1)c1c(O)c2ccccc2oc1=O (stereo not drawn) [Warfarin, warfarin]
role towards CYP2C8 (substrate / inhibitor / inducer) (CYP2C8): Substrate
role towards CYP3A4 (substrate / inhibitor / inducer) (CYP3A4): Substrate
role towards CYP2C18 (substrate / inhibitor / inducer) (CYP2C18): Substrate
role towards CYP1A1 (substrate / inhibitor / inducer) (CYP1A1): Substrate
role towards CYP1A2 (substrate / inhibitor / inducer) (CYP1A2): Substrate

O=c1cc(-c2ccc(O)cc2)oc2cc(O)cc(O)c12 [Apigenin, apigenin]
role towards CYP1A1 (substrate / inhibitor / inducer) (CYP1A1): Inhibitor

O=C1C[C@@H](c2ccc(O)cc2)Oc2cc(O)cc(O)c21 [Naringenin, naringenin]
role towards CYP11B1 (substrate / inhibitor / inducer) (CYP11B1): Inhibitor
role towards CYP3A4 (substrate / inhibitor / inducer) (CYP3A4): inhibitor

CC(=O)O[C@H]1C(=O)[C@@]2(C)[C@H]([C@H](OC(=O)c3ccccc3)[C@]3(O)C[C@H](OC(=O)[C@H](O)[C@@H](NC(=O)c4ccccc4)c4ccccc4)C(C)=C1C3(C)C)[C@]1(OC(C)=O)CO[C@@H]1C[C@@H]2O [Paclitaxel, paclitaxel]
role towards CYP3A4 (substrate / inhibitor / inducer) (CYP3A4): Substrate; also recorded: inhibitor
